Measurements taken from PMC8445441, “Elucidating the mechanism by which synthetic helper peptides sensitize Pseudomonas aeruginosa to multiple antibiotics” (PLoS Pathogens, 2021).
Read-outs that look alike come from different tables or passages of the source.

Key:
P. aeruginosa AUMC-Pa-3 = assay: microbe, parasite or virus in culture; settings: strain AUMC-Pa-3; for FICI: antibiotic + D-11 (MICb/MICbc 128/4); for MICa: MIC of the antibiotic: antibiotic alone; for MICa: MIC of the antibiotic / MICac: MIC of the antibiotic in the combination: unit not given; for MICac: MIC of the antibiotic in the combination: with D-11 at MICbc 4
In short: (§1)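 CLSI broth dilution; MHB; ~1 × 10^6 CFU/mL suspension mixed equal volume with drug; 37 °C for 18 h; visual read; triplicate. Broth sometimes supplemented with PG, PE, PC, CL, LPS, MgCl2, CaCl2 or PAβN.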

P. aeruginosa AUMC-Pa-4 = assay: microbe, parasite or virus in culture; settings: strain AUMC-Pa-4; for FICI: antibiotic + D-11 (MICb/MICbc 128/4); for MICa: MIC of the antibiotic: antibiotic alone; for MICa: MIC of the antibiotic / MICac: MIC of the antibiotic in the combination: unit not given; for MICac: MIC of the antibiotic in the combination: with D-11 at MICbc 4
In short: as §1

P. aeruginosa PAO1 = assay: microbe, parasite or virus in culture; settings: PAO1
In short: as §1

P. aeruginosa AUMC-Pa-5 = assay: microbe, parasite or virus in culture; settings: strain AUMC-Pa-5; for FICI: antibiotic + D-11 (MICb/MICbc 64/4); for MICa: MIC of the antibiotic: antibiotic alone; for MICa: MIC of the antibiotic / MICac: MIC of the antibiotic in the combination: unit not given; for MICac: MIC of the antibiotic in the combination: with D-11 at MICbc 4
In short: as §1

P. aeruginosa AUMC-Pa-6 = assay: microbe, parasite or virus in culture; settings: strain AUMC-Pa-6; for FICI: antibiotic + D-11 (MICb/MICbc 64/4); for MICa: MIC of the antibiotic: antibiotic alone; for MICa: MIC of the antibiotic / MICac: MIC of the antibiotic in the combination: unit not given; for MICac: MIC of the antibiotic in the combination: with D-11 at MICbc 4
In short: as §1

P. aeruginosa AUMC-Pa-2 = settings: strain AUMC-Pa-2; antibiotic + D-11 (MICb/MICbc 64/4)
In short: as §1

P. aeruginosa AUMC-Pa-1 = settings: strain AUMC-Pa-1; antibiotic + D-11 (MICb/MICbc 128/4)
In short: as §1

P. aeruginosa NR-31040 = assay: microbe, parasite or virus in culture; set-up: MICa: MIC of the antibiotic / MICac: MIC of the antibiotic in the combination: unit not given beside the values; settings: for FICI: antibiotic + D-11 (MICb/MICbc 128/4); for MICac: MIC of the antibiotic in the combination: with D-11 at MICbc 4
In short: as §1

P. aeruginosa NR-31041 = assay: microbe, parasite or virus in culture; set-up: MICa: MIC of the antibiotic / MICac: MIC of the antibiotic in the combination: unit not given beside the values; settings: for FICI: antibiotic + D-11 (MICb/MICbc 64/4)
In short: as §1

P. aeruginosa ATCC27853 = assay: microbe, parasite or virus in culture; set-up: MICa: MIC of the antibiotic / MICac: MIC of the antibiotic in the combination: unit not given beside the values; settings: strain ATCC27853; for FICI: antibiotic + D-11 (MICb/MICbc 32/4); for MICa: MIC of the antibiotic: antibiotic alone; for MICa: MIC of the antibiotic / MICac: MIC of the antibiotic in the combination: unit not given; for MICac: MIC of the antibiotic in the combination: with D-11 at MICbc 4
In short: as §1

P. aeruginosa PA14 = assay: microbe, parasite or virus in culture; set-up: MICa: MIC of the antibiotic / MICac: MIC of the antibiotic in the combination: unit not given beside the values; settings: strain PA14; for FICI: antibiotic + D-11 (MICb/MICbc 128/4); for MICa: MIC of the antibiotic: antibiotic alone; for MICa: MIC of the antibiotic / MICac: MIC of the antibiotic in the combination: unit not given; for MICac: MIC of the antibiotic in the combination: with D-11 at MICbc 4
In short: as §1

P. aeruginosa PAK = assay: microbe, parasite or virus in culture; set-up: MICa: MIC of the antibiotic / MICac: MIC of the antibiotic in the combination: unit not given beside the values; settings: strain PAK; for FICI: antibiotic + D-11 (MICb/MICbc 64/4); for MICa: MIC of the antibiotic: antibiotic alone; for MICa: MIC of the antibiotic / MICac: MIC of the antibiotic in the combination: unit not given; for MICac: MIC of the antibiotic in the combination: with D-11 at MICbc 4
In short: as §1

P. aeruginosa HM-214 = settings: strain HM-214; antibiotic + D-11 (MICb/MICbc 128/4)
In short: as §1

[1] = system: clinical P. aeruginosa isolates; assay: microbe, parasite or virus in culture; settings: Pseudomonas aeruginosa, 18 h, antibiotic alone
In short: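 MIC is the lowest drug concentration showing no visible growth after 18 h at 37 °C. Two-fold dilutions in MHB were combined with an equal volume of bacterial suspension (about 1 × 10^6 CFU/mL), following CLSI broth microdilution, in triplicate.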

[2] = strain NR-31040, unit not given
[3] = read-out: Antibiotic sensibility (MIC) of clinical P. aeruginosa isolate AUMC-Pa-1, strain AUMC-Pa-1
[4] = read-out: Antibiotic sensibility (MIC) of clinical P. aeruginosa isolate AUMC-Pa-2, strain AUMC-Pa-2
[5] = read-out: Antibiotic sensibility (MIC) of clinical P. aeruginosa isolate AUMC-Pa-3, strain AUMC-Pa-3
[6] = read-out: Antibiotic sensibility (MIC) of clinical P. aeruginosa isolate AUMC-Pa-4, strain AUMC-Pa-4
[7] = read-out: Antibiotic sensibility (MIC) of clinical P. aeruginosa isolate AUMC-Pa-5, strain AUMC-Pa-5
[8] = read-out: Antibiotic sensibility (MIC) of clinical P. aeruginosa isolate AUMC-Pa-6, strain AUMC-Pa-6
[9] = read-out: Antibiotic sensibility (MIC) of clinical P. aeruginosa isolate HM-214, strain HM-214
[10] = read-out: Antibiotic sensibility (MIC) of clinical P. aeruginosa isolate NR-31040, strain NR-31040
[11] = read-out: Antibiotic sensibility (MIC) of clinical P. aeruginosa isolate NR-31041, strain NR-31041

SMILES: CC[C@H]1OC(=O)[C@H](C)C(=O)[C@H](C)[C@@H](O[C@@H]2O[C@H](C)C[C@H](N(C)C)[C@H]2O)[C@](C)(OC)C[C@@H](C)C(=O)[C@H](C)[C@H]2N(CCCCn3cnc(-c4cccnc4)c3)C(=O)O[C@]12C [Telithromycin]
- FICI (P. aeruginosa AUMC-Pa-3): 0.063
- MICa: MIC of the antibiotic (P. aeruginosa AUMC-Pa-3): 64
- MICac: MIC of the antibiotic in the combination (P. aeruginosa AUMC-Pa-3): 2
- FICI (P. aeruginosa AUMC-Pa-4): 0.531
- MICa: MIC of the antibiotic (P. aeruginosa AUMC-Pa-4): 64
- MICac: MIC of the antibiotic in the combination (P. aeruginosa AUMC-Pa-4): 32
- MIC (P. aeruginosa PAO1; Pseudomonas aeruginosa, PAO1, 18 h, read-out: MICa: the MIC of antibiotics, S1 Table, macrolide alone): 64 µM
- FICI (P. aeruginosa AUMC-Pa-5): 0.563
- MICa: MIC of the antibiotic (P. aeruginosa AUMC-Pa-5): 64
- MICac: MIC of the antibiotic in the combination (P. aeruginosa AUMC-Pa-5): 32
- FICI (P. aeruginosa AUMC-Pa-6): 0.563
- MICa: MIC of the antibiotic (P. aeruginosa AUMC-Pa-6): 64
- MICac: MIC of the antibiotic in the combination (P. aeruginosa AUMC-Pa-6): 32
- FICI (P. aeruginosa AUMC-Pa-2): 0.313
- FICI (P. aeruginosa AUMC-Pa-1): 0.156
- FICI (P. aeruginosa NR-31040; strain NR-31040): 0.531
- MICa: MIC of the antibiotic (P. aeruginosa NR-31040; strain NR-31040, antibiotic alone, unit not given): 128
- MICac: MIC of the antibiotic in the combination (P. aeruginosa NR-31040; [2]): 64
- FICI (P. aeruginosa NR-31041; strain NR-31041): 0.188
- MICa: MIC of the antibiotic (P. aeruginosa NR-31041; strain NR-31041, antibiotic alone, unit not given): 128
- MICac: MIC of the antibiotic in the combination (P. aeruginosa NR-31041; strain NR-31041, with D-11 at MICbc 4, unit not given): 16
- FICI (P. aeruginosa ATCC27853): 0.250
- MICa: MIC of the antibiotic (P. aeruginosa ATCC27853): 64
- MICac: MIC of the antibiotic in the combination (P. aeruginosa ATCC27853): 8
- FICI (P. aeruginosa PA14): 0.281
- MICa: MIC of the antibiotic (P. aeruginosa PA14): 64
- MICac: MIC of the antibiotic in the combination (P. aeruginosa PA14): 16
- FICI (P. aeruginosa PAK): 0.313
- MICa: MIC of the antibiotic (P. aeruginosa PAK): 64
- MICac: MIC of the antibiotic in the combination (P. aeruginosa PAK): 16
- FICI (P. aeruginosa HM-214): 0.156
- MIC [1, 3]: 128 µM
- MIC [1, 4]: 64 µM
- MIC [1, 5]: 64 µM
- MIC [1, 6]: 64 µM
- MIC [1, 7]: 64 µM
- MIC [1, 8]: 64 µM
- MIC [1, 9]: 128 µM
- MIC [1, 10]: 128 µM
- MIC [1, 11]: 128 µM

SMILES: CN(C)c1cc(NC(=O)CNC(C)(C)C)c(O)c2c1C[C@H]1C[C@H]3[C@H](N(C)C)C(O)=C(C(N)=O)C(=O)[C@@]3(O)C(O)=C1C2=O [Tigecycline]
- FICI (P. aeruginosa AUMC-Pa-3): 0.281
- MICa: MIC of the antibiotic (P. aeruginosa AUMC-Pa-3): 4
- MICac: MIC of the antibiotic in the combination (P. aeruginosa AUMC-Pa-3): 1
- FICI (P. aeruginosa AUMC-Pa-4): 0.281
- MICa: MIC of the antibiotic (P. aeruginosa AUMC-Pa-4): 8
- MICac: MIC of the antibiotic in the combination (P. aeruginosa AUMC-Pa-4): 2
- FICI (P. aeruginosa PAO1; S3 Table, antibiotic + 2 μM D-11): 0.313
- FICI (P. aeruginosa PAO1; S3 Table, antibiotic + 4 μM D-11): 0.375
- MICac: the MIC for the antibiotic in the combination (P. aeruginosa PAO1; S3 Table, with 2 μM D-11): 1 µM
- MICac: the MIC for the antibiotic in the combination (P. aeruginosa PAO1; S3 Table, with 4 μM D-11): 1 µM
- MICa: the MIC of antibiotics (P. aeruginosa PAO1; S3 Table, antibiotic alone): 4 µM
- FICI (P. aeruginosa AUMC-Pa-5): 1.063
- MICa: MIC of the antibiotic (P. aeruginosa AUMC-Pa-5): 8/8
- MICac: MIC of the antibiotic in the combination (P. aeruginosa AUMC-Pa-5): 8/8
- FICI (P. aeruginosa AUMC-Pa-6): 0.313
- MICa: MIC of the antibiotic (P. aeruginosa AUMC-Pa-6): 8
- MICac: MIC of the antibiotic in the combination (P. aeruginosa AUMC-Pa-6): 2
- FICI (P. aeruginosa AUMC-Pa-2): 0.563
- FICI (P. aeruginosa AUMC-Pa-1): 0.281
- MIC (P. aeruginosa NR-31040; Pseudomonas aeruginosa, NR31040, 18 h, read-out: MICa: MIC of the antibiotic): 8 µM
- FICI (P. aeruginosa NR-31040; strain NR-31040): 0.094
- MICac: MIC of the antibiotic in the combination (P. aeruginosa NR-31040; [2]): 0.5
- MIC (P. aeruginosa NR-31041; Pseudomonas aeruginosa, NR31041, 18 h, read-out: MICa: MIC of the antibiotic): 8.1 µM
- FICI (P. aeruginosa NR-31041; strain NR-31041): 0.188
- FICI (P. aeruginosa ATCC27853): 0.375
- MICa: MIC of the antibiotic (P. aeruginosa ATCC27853): 4
- MICac: MIC of the antibiotic in the combination (P. aeruginosa ATCC27853): 1
- FICI (P. aeruginosa PA14): 0.281
- MICa: MIC of the antibiotic (P. aeruginosa PA14): 4
- MICac: MIC of the antibiotic in the combination (P. aeruginosa PA14): 1
- FICI (P. aeruginosa PAK): 0.313
- MICa: MIC of the antibiotic (P. aeruginosa PAK): 4
- MICac: MIC of the antibiotic in the combination (P. aeruginosa PAK): 1
- FICI (P. aeruginosa HM-214): 0.281
- MIC [1, 3]: 8 µM
- MIC [1, 4]: 2 µM
- MIC [1, 5]: 4 µM
- MIC [1, 6]: 8 µM
- MIC [1, 7]: 8 µM
- MIC [1, 8]: 8 µM
- MIC [1, 9]: 4 µM
- MIC [1, 10]: 8 µM
- MIC [1, 11]: 8 µM
